Counter-ions that a name gives are not always drawn.
What was measured:
SB.msgc-1 = test: AC50 for growth inhibition (viability) (log10 M); higher = less potent; details: SB.msgc-1 (sporadic gastric cancer)
Method in brief: (§1)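 Dosing used a pintool to add 23 nL compound in DMSO to 1536 wells, each with 500 hereditary or sporadic patient-derived gastric cancer cells, across 11 threefold dilutions starting at a final 46 μM. Viability after 48 h was measured by CellTiter-Glo luminescence on a ViewLux. The log half-maximal activity concentration derives from a four-parameter fit of that viability normalised to DMSO, limited to high-quality curve classes.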

SB.mhdgc-1 = test: as above; details: SB.mhdgc-1 (hereditary c.1380delA CDH1 gastric cancer)
Method in brief: as §1

Structure (SMILES)	AC50 for growth inhibition (log10 M) (SB.msgc-1)	AC50 for growth inhibition (log10 M) (SB.mhdgc-1)
OC1=C(C=CC=C1)C2=CC=C(C=C2)C3=CSC4=C3C(=C(/C#N)C(=O)N4)/O	-4.78	-5.83
CC(C)c1ccccc1Cc1cc(C(=O)Nc2ccc([S+](=O)([O-])c3ccccc3C(C)(C)C)cc2)c(O)c(O)c1O [TW-37]	-5.13	-4.83
Cc1ccccc1C(=O)c1ccc(Nc2ccc(Br)cc2N)cc1Cl [EO-1428]	-4.78	-4.93
COc1cc(F)c(C(C)C)cc1-c1ccc(C(F)(F)F)cc1CN1C(=O)O[C@H](c2cc(C(F)(F)F)cc(C(F)(F)F)c2)[C@@H]1C [Anacetrapib]	-5.48	-5.13
C[S+](=O)([O-])N1CCN(Cc2cc3nc(-c4cccc5[nH]ncc45)nc(N4CCOCC4)c3s2)CC1 [GDC-0941]	-6.13	-7.23
COc1ccc2c(c1OC)C(=O)O[C@H]2[C@H]1c2c(cc3c(c2OC)OCO3)CCN1C [Noscapine]	-6.63	-6.78
Cc1cc(CN2CCN(c3c(Br)cnc4[nH]c(-c5ccc(N6CCN(C)CC6)cc5)nc34)CC2)no1	-4.68	-4.63
CC(C)C[C@H](NC(=O)[C@H](Cc1ccccc1)NC(=O)c1cnccn1)B(O)O [Bortezomib]	-7.98	-7.78
CC[C@@H]1[C@@H](C)O[C@@](O)([C@@H](C)[C@H](O)[C@H](C)[C@H]2OC(=O)/C=C/C=C/[C@H](C)[C@@H]([C@@H](C)[C@@H](O)[C@H](C)[C@@]3(O)C[C@@H](O[C@H]4C[C@H](O)[C@H](O)[C@H](C)O4)[C@H](CC)[C@@H](C)O3)OC(=O)/C=C/C=C/[C@@H]2C)C[C@H]1O[C@H]1C[C@H](O)[C@H](O)[C@H](C)O1 [Azalomycin-B]	-6.33	-6.38
C/C=C1\NC(=O)[C@H]2CSSCC/C=C\[C@H](CC(=O)N[C@H](C(C)C)C(=O)N2)OC(=O)[C@H](C(C)C)NC1=O [Romidepsin]	-7.83	-7.63
CCN1CCN(C(=O)Cc2ccc(Nc3ncc(F)c(Nc4ccc(C(=O)Nc5ccccc5Cl)cc4)n3)cc2)CC1 [Aurora A Inhibitor I]	-4.73	-4.78
CC(C)(C)C(=O)OCOP(=O)(COCCn1cnc2c(N)ncnc21)OCOC(=O)C(C)(C)C [Adefovir dipivoxil]	-5.28	-6.93
CCCCc1oc2ccccc2c1C(=O)c1cc(I)c(OCCN(CC)CC)c(I)c1 [Amiodarone]	-5.03	-4.88
Nc1nc(Cl)nc2c1ncn2[C@H]1C[C@H](O)[C@@H](CO)O1 [Cladribine]	-5.83	-6.58
CCN1CCC(n2cc(CNc3cc(Cl)c4ncc(C#N)c(Nc5ccc(F)c(Cl)c5)c4c3)nn2)CC1 [Wyeth Cot inhibitor-2]	-4.73	-5.03
CCN(CC)CCCC(C)Nc1ccnc2cc(Cl)ccc12 (stereo not drawn) [Chloroquine (CQ)]	-4.73	-4.98
CC[C@H](NC1=C2N=C[NH]C2=NC=N1)C/3=N/C4=C(C(=CC=C4)F)C(=O)N3C5=CC=CC=C5 [CAL-101]	-5.43	-5.18
CC1=CC=C(C=C1)\C2=N\C3=CC=C(Cl)C=C3OC2 [AR7]	-5.03	-5.03
CCc1cc(Nc2nccc(-c3c(-c4ccc(OC)c(C(=O)Nc5c(F)cccc5F)c4)nc4ccccn34)n2)c(OC)cc1N1CCC(N2CCN([S+](C)(=O)[O-])CC2)CC1	-5.63	-7.33
CCOC(=O)C(C#N)C\1C2=CC(=CC=C2O\C(=C1C(=O)OCC)N)Br (stereo not drawn) [HA-14-1]	-4.63	-4.68
CN1CCN(CCOc2cc(OC3CCOCC3)c3c(Nc4c(Cl)ccc5c4OCO5)ncnc3c2)CC1 [Saracatinib]	-5.88	-4.63
CCCNC(=O)[C@H]1O[C@@H]1C(=O)N[C@H](C(=O)N1CCC[C@H]1C(=O)OC)C(C)CC (stereo partly drawn) [CA-074 Me]	-4.73	-4.78

Structure (SMILES)	AC50 for growth inhibition (log10 M) (SB.msgc-1)	AC50 for growth inhibition (log10 M) (SB.mhdgc-1)
C/C=C(/C)C(=O)O[C@H]1C(C)=C2[C@H]([C@@H]1OC(=O)CCCCCCC)[C@@](C)(OC(C)=O)C[C@H](OC(=O)CCC)[C@@]1(O)[C@H]2OC(=O)[C@@]1(C)O [Thapsigargin]	-7.43	-6.98
Cc1ccc([S+](=O)([O-])Nc2cc(Cl)ccc2C(=O)Nc2nc(-c3ccccc3)cs2)cc1	-5.28	-4.68
CN(Cc1cnc2nc(N)nc(N)c2n1)c1ccc(C(=O)N[C@@H](CCC(=O)O)C(=O)O)cc1 [Methotrexate]	-7.48	-6.68
O=[S+]([O-])(O)c1ccc2cc(/N=N/c3cc([S+](=O)([O-])O)c4cccnc4c3O)ccc2c1	-4.93	-4.68
CCC(c1ccc(O)cc1)C(CC)c1ccc(O)cc1 (stereo not drawn) [Hexestrol]	-5.88	-5.88
CC[C@H](C)[N]1C=C(C)C2=C1C=C(C=C2C(=O)NC\C3=C(C)\C=C(\C)NC3=O)C4=CC=C(N=C4)N5CCNCC5 [GSK126]	-4.98	-5.03
OCCN1CCN(CCCN2c3ccccc3Sc3ccc(C(F)(F)F)cc32)CC1 [Fluphenazine hydrochloride]	-4.78	-4.83
O=C1CSC(=O)N1C(CCc1ccncc1)COc1ccc(-c2cccc([N+](=O)[O-])c2)cc1 (stereo not drawn)	-5.78	-5.88
Nc1ccccc1NC(=O)c1ccc(CNC(=O)OCc2cccnc2)cc1 [Entinostat]	-5.88	-4.83
CCc1ccc(OCc2ccccc2C(=O)Nc2ccc3nc(C)cc(N)c3c2)cc1 [JTC-801]	-4.98	-5.43
Cc1cc(Nc2cc(N3CCN(C)CC3)nc(/C=C/c3ccccc3)n2)n[nH]1	-4.27	-4.32
CN(C)CC(C)(C)CNc1nn2c(-c3ccccc3)nnc2cc1C1CCC1 [Akt-I-1]	-4.68	-6.33
COc1cc(Oc2ccnc3cc(OC)c(OC)cc23)ccc1NC(=O)NC(C)c1nccs1 (stereo not drawn)	-4.78	-4.73
Cn1cc(-c2ccc3nnc(Sc4ccc5ncccc5c4)n3n2)cn1 [SGX-523]	-4.78	-5.13
CC(C)C[C@@H](C(=O)N[C@H](C(=O)OC1CCCC1)c1ccccc1)[C@H](O)C(=O)NO [Tosedostat]	-4.83	-5.43
CN1[C@@H]2CC(O)C[C@H]1[C@@H]1O[C@@H]12 (stereo partly drawn) [Scopine]	-4.83	-4.78
C=CC(=O)Nc1ccc2ncnc(Nc3ccc(OCc4cccc(F)c4)c(Cl)c3)c2c1 [AST-1306]	-8.33	-5.28
COC[C@H]1OC(=O)C2=COC3=C2[C@@]1(C)\C4=C(\[C@@H]5CC[C@H](O)[C@@]5(C)C[C@H]4OC(C)=O)C3=O [17_-hydroxy Wortmannin]	-5.58	-5.53
O=C1\C=C/C=C2/[C@H]3CNC[C@H](C3)CN12 [Cytisine]	-4.83	-6.03
CCc1cc(-c2n[nH]c(C)c2-c2ccc3c(c2)OCCO3)c(O)cc1O	-5.68	-5.53
N=c1c2c(-c3ccccc3)c(-c3ccccc3)n(Cc3ccccc3)c2ncn1[C@H]1CC[C@H](O)CC1	-4.73	-4.58
Nc1nc(N)c(N=O)c(OCC2CCCCC2)n1 [NU-6027]	-4.73	-5.33

From the supplement of paper PMC5412046
